# Reference: PMC9230573 (Frontiers in Pharmacology, 2022)
# Where a SMILES comes first, the peptide text is derived from it. Bridges are numbered along the chain shown (N, C = ends).
# Columns and labels:
# [1] = target: rat α3β2 nAChR (Rattus norvegicus, UniProt P04757+P12390); assay: cell-based
# [2] = target: human CaV2.2 (α1B, β3, α2δ1) (Homo sapiens, UniProt Q00975); assay: cell-based
# Sequence of human CaV2.2 (α1B, β3, α2δ1) (Q00975 whole entry, looked up): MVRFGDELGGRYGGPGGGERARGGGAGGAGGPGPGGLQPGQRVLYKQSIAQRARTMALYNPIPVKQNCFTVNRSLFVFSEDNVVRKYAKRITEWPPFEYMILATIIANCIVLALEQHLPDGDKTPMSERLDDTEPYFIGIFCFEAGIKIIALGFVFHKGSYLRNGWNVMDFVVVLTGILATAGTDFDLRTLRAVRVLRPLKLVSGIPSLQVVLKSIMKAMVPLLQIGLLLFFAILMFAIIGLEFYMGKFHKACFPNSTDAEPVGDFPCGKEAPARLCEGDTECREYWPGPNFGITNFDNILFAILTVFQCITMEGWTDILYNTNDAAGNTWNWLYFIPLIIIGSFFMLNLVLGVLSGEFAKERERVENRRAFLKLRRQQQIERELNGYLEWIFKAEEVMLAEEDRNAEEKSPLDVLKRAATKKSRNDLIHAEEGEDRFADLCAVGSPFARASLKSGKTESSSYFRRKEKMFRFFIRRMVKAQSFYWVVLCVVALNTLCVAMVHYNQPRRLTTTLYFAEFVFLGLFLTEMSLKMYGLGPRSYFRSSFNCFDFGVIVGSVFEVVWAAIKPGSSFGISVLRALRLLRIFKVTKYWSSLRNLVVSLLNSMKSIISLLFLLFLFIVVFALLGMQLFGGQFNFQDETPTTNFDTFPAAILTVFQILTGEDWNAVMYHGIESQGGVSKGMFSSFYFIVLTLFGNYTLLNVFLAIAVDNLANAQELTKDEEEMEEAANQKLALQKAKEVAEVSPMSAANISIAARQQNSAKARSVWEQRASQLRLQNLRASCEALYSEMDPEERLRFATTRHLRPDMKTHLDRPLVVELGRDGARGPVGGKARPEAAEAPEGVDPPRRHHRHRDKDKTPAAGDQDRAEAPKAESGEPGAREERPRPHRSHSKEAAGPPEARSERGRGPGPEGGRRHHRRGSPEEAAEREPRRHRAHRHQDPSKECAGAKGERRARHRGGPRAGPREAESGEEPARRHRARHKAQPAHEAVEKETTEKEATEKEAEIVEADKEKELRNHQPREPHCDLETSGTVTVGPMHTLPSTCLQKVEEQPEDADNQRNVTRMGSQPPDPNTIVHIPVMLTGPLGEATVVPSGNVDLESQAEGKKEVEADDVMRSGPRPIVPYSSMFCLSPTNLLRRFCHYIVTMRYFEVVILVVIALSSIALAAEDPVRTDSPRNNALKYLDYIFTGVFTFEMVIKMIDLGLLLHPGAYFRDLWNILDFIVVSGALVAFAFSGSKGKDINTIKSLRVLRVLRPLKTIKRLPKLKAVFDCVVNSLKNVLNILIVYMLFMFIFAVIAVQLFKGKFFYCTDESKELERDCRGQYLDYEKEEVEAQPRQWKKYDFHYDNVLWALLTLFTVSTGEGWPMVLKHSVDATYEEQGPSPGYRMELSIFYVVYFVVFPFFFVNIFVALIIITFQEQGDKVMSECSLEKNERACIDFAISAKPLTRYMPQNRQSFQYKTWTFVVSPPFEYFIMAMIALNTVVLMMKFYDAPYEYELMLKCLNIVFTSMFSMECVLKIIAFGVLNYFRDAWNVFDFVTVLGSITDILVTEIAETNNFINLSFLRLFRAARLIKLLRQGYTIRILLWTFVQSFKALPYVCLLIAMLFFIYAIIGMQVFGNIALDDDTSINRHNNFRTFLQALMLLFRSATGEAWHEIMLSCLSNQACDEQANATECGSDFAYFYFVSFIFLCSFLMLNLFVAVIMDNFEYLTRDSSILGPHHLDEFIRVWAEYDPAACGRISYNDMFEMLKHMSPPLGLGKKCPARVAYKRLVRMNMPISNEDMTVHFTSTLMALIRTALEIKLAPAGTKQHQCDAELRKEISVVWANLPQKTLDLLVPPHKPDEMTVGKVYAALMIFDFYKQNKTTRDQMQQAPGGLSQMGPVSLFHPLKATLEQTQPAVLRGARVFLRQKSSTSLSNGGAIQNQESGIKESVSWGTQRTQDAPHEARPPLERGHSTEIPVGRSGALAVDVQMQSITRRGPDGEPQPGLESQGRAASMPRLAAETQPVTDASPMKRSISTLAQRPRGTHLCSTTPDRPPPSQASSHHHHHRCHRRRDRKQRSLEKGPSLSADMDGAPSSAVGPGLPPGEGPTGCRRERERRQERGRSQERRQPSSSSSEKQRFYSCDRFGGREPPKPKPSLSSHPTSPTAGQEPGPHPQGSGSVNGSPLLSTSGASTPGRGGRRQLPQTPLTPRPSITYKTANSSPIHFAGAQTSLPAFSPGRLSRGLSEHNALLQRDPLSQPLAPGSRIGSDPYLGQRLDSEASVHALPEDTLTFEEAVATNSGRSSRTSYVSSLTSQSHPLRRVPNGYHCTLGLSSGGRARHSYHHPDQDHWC
# Sequence of rat α3β2 nAChR (P04757 26-499 limits assumed): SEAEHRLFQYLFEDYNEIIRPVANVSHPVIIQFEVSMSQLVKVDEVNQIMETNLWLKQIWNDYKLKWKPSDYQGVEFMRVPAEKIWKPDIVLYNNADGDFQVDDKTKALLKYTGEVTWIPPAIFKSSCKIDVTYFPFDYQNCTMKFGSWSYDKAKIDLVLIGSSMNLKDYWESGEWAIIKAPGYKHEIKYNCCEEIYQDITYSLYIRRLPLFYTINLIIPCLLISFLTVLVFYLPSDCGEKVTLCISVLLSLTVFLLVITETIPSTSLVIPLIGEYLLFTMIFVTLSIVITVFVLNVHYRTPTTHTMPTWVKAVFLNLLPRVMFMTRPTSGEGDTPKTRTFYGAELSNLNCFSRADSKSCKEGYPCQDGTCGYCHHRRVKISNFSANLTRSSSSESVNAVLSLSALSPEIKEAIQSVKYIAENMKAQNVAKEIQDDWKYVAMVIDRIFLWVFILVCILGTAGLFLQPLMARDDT
# Sequence of rat α3β2 nAChR (P12390 25-500 limits assumed): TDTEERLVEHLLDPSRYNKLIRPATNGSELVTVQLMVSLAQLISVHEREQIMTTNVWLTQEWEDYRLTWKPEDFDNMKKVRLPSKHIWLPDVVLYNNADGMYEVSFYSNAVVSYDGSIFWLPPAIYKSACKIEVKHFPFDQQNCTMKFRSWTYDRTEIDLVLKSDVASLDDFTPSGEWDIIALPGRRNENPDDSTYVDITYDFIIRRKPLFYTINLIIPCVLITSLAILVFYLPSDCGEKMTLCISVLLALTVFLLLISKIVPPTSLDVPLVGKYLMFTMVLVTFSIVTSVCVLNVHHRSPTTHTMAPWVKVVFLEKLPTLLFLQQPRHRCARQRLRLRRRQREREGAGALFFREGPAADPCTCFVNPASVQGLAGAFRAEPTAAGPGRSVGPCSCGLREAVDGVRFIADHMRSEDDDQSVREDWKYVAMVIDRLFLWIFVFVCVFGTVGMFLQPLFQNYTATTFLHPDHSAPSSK
SMILES,IC50 [1] [µM],change of potency at the α3β2 nAChR subtype compared with Vt1.27 (in words) [1],inhibitory activity at CaV2.2 compared with Vt1.27 (in words; percent inhibition of IBa) [2],Hillslope [1]
"CC[C@H](C)[C@@H]1NC(=O)[C@@H]2CCCN2C(=O)[C@@H]2CSSC[C@H](NC(=O)[C@@H](N)CC(N)=O)C(=O)N[C@@H](CSSC[C@@H](C(N)=O)NC(=O)[C@H](CC(N)=O)NC(=O)[C@H](C)NC(=O)[C@H](CCCNC(=N)N)NC(=O)[C@H](CO)NC(=O)[C@H](Cc3ccc(O)cc3)NC(=O)[C@H](CC(=O)O)NC1=O)C(=O)N[C@@H](CCSC)C(=O)N[C@@H](Cc1ccccc1)C(=O)N[C@@H](Cc1c[nH]cn1)C(=O)N[C@@H]([C@@H](C)O)C(=O)N2 [Vt1.27[F15A]] (H-NCCMFHTCPIDYSRANC-NH2; disulfide 2-8, 3-17)",> 10,a decrease in the potency,equipotent to the native peptide,–
"CC[C@H](C)[C@@H]1NC(=O)[C@H](C)NC(=O)[C@@H]2CSSC[C@H](NC(=O)[C@@H](N)CC(N)=O)C(=O)N[C@@H](CSSC[C@@H](C(N)=O)NC(=O)[C@H](CC(N)=O)NC(=O)[C@H](Cc3ccccc3)NC(=O)[C@H](CCCNC(=N)N)NC(=O)[C@H](CO)NC(=O)[C@H](Cc3ccc(O)cc3)NC(=O)[C@H](CC(=O)O)NC1=O)C(=O)N[C@@H](CCSC)C(=O)N[C@@H](Cc1ccccc1)C(=O)N[C@@H](Cc1c[nH]cn1)C(=O)N[C@@H]([C@@H](C)O)C(=O)N2 [Vt1.27[P9A]] (H-NCCMFHTCAIDYSRFNC-NH2; disulfide 2-8, 3-17)",9.4,a sharp decrease in activity,decrease in inhibitory activity,-0.763
"CC[C@H](C)[C@@H]1NC(=O)[C@@H]2CCCN2C(=O)[C@@H]2CSSC[C@H](NC(=O)[C@@H](N)CC(N)=O)C(=O)N[C@@H](CSSC[C@@H](C(N)=O)NC(=O)[C@H](CC(N)=O)NC(=O)[C@H](Cc3ccccc3)NC(=O)[C@H](CCCNC(=N)N)NC(=O)[C@H](CO)NC(=O)[C@H](C)NC(=O)[C@H](CC(=O)O)NC1=O)C(=O)N[C@@H](CCSC)C(=O)N[C@@H](Cc1ccccc1)C(=O)N[C@@H](Cc1c[nH]cn1)C(=O)N[C@@H]([C@@H](C)O)C(=O)N2 [Vt1.27[Y12A]] (H-NCCMFHTCPIDASRFNC-NH2; disulfide 2-8, 3-17)",2.54,a decrease in the potency,–,-1.577
"CC[C@H](C)[C@@H]1NC(=O)[C@H](C)NC(=O)[C@@H]2CSSC[C@H](NC(=O)[C@@H](N)CC(N)=O)C(=O)N[C@@H](CSSC[C@@H](C(N)=O)NC(=O)[C@H](CC(N)=O)NC(=O)[C@H](Cc3ccccc3)NC(=O)[C@H](CCCNC(=N)N)NC(=O)[C@H](CO)NC(=O)[C@H](Cc3ccc(O)cc3)NC(=O)[C@H](CC(=O)O)NC1=O)C(=O)N[C@@H](CCSC)C(=O)N[C@@H](Cc1ccccc1)C(=O)N1CCC[C@H]1C(=O)N[C@@H]([C@@H](C)O)C(=O)N2 [Vt1.27[H6P、P9A]] (H-NCCMFPTCAIDYSRFNC-NH2; disulfide 2-8, 3-17)",> 10,a significant loss of potency,–,–
"CC[C@H](C)[C@@H]1NC(=O)[C@@H]2CCCN2C(=O)[C@@H]2CSSC[C@H](NC(=O)[C@@H](N)CC(N)=O)C(=O)N[C@@H](CSSC[C@@H](C(N)=O)NC(=O)[C@H](CC(N)=O)NC(=O)[C@H](Cc3ccccc3)NC(=O)[C@H](C)NC(=O)[C@H](CO)NC(=O)[C@H](Cc3ccc(O)cc3)NC(=O)[C@H](CC(=O)O)NC1=O)C(=O)N[C@@H](CCSC)C(=O)N[C@@H](Cc1ccccc1)C(=O)N[C@@H](Cc1c[nH]cn1)C(=O)N[C@@H]([C@@H](C)O)C(=O)N2 [Vt1.27[R14A]] (H-NCCMFHTCPIDYSAFNC-NH2; disulfide 2-8, 3-17)",2.86,a decrease in the potency,–,-0.871
